Reference: patent publication US9580437B2, “Triazolopyrimidine compounds and uses thereof” (Novartis AG, priority 2014, dated 2017)

Assays:
EED (1-441)-His protein = EED (1-441)-His protein (Homo sapiens (Human), UniProt O75530); assay: EED-H3K27Me3 peptide competition binding assay by AlphaScreen; conditions: read-out: (a) IC50 EED Alphascreen binding Qualified
Description: EED-H3K27Me3 peptide competition binding assay by AlphaScreen (α-screen)

[1] = target: wild type PRC2 (wtPRC2) complex (Homo sapiens (Human), UniProt O75530); assay: EED LC-MS assay; assay type: biochemical; conditions: read-out: (b) IC50 EED LC-MS Qualified
wild type PRC2 (wtPRC2) complex, sequence (O75530 whole entry): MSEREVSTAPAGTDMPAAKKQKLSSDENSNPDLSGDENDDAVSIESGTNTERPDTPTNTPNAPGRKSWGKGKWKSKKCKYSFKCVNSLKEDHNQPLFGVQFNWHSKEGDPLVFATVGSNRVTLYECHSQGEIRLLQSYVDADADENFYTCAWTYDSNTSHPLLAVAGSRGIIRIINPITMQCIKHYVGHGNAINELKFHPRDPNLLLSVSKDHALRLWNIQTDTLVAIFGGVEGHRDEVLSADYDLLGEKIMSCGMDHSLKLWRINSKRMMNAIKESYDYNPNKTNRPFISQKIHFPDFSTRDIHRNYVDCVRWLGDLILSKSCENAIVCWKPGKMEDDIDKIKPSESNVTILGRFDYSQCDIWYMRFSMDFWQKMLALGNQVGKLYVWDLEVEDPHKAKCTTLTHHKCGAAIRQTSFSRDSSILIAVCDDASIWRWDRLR
wild type PRC2 (wtPRC2) complex, sequence (Q15910 whole entry partner): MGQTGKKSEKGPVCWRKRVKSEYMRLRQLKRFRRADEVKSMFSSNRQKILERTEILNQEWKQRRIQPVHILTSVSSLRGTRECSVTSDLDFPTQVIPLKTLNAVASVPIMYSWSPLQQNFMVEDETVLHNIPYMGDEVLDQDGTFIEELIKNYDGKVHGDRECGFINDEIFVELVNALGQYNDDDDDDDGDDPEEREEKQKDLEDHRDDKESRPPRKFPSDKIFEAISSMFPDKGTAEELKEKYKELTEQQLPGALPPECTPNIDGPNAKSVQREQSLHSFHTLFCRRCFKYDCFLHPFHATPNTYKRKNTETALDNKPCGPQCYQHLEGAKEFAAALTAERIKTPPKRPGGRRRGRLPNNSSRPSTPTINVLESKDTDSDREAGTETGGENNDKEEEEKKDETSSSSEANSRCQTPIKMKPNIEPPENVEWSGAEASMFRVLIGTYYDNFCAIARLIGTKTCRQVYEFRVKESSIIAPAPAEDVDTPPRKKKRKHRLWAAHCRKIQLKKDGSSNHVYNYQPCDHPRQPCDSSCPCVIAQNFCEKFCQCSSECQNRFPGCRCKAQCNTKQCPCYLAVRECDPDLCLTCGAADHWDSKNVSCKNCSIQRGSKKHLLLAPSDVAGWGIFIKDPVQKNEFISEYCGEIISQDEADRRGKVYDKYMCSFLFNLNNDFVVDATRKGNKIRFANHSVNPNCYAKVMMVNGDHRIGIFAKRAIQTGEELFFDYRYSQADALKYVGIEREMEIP
wild type PRC2 (wtPRC2) complex, sequence (Q15022 whole entry partner): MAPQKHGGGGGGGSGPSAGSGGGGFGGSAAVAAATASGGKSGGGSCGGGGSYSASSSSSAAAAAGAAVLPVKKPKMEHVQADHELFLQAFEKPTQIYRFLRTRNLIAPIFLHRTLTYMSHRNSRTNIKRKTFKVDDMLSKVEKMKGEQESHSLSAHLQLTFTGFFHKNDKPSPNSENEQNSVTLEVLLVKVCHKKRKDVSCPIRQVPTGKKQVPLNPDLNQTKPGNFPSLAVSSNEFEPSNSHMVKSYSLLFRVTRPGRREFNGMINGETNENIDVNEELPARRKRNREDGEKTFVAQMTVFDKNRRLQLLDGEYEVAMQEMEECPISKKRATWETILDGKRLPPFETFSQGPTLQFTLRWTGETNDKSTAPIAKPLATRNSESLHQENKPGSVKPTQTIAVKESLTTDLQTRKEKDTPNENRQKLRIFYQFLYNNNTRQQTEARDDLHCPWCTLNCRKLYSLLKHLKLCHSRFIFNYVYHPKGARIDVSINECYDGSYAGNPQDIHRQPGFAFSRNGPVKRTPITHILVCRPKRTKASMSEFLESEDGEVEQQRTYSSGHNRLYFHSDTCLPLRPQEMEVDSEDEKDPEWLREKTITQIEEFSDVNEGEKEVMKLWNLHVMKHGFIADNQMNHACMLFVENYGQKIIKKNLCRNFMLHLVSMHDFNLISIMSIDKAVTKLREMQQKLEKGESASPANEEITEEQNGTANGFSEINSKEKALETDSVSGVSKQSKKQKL
Procedure: A 6 μL solution of 3 μM of the peptide substrate H3K27Me0 (histone H3[21-44]-biotin) in reaction buffer was added to initiate each reaction. […] ELISA (H3K27 Methylation) Assay

EED (1-441)-His protein, sequence (O75530 whole entry): as the sequence (O75530 whole entry) above

SMILES: Cc1nn(C(C)C)cc1-c1cnc(NCc2cccc3c2CCO3)n2cnnc12 [Example 82, N-((2,3-dihydrobenzofuran-4-yl)methyl)-8-(1-isopropyl-3-methyl-1H-pyrazol-4-yl)-[1,2,4]triazolo[4,3-c]pyrimidin-5-amine]
- IC50 (EED (1-441)-His protein): 0.0167 µM
- IC50 [1]: 0.0309 µM

SMILES: Cc1nn(C)c(C)c1-c1cnc(NCc2c(F)ccc3c2CCO3)n2cnnc12 [Example 132, N-((5-fluoro-2,3-dihydrobenzofuran-4-yl)methyl)-8-(1,3,5-trimethyl-1H-pyrazol-4-yl)-[1,2,4]triazolo[4,3-c]pyrimidin-5-amine]
- IC50 (EED (1-441)-His protein): 0.0062 µM
- IC50 [1]: 0.0102 µM

SMILES: Cc1c(-c2cnc(NCc3c(F)ccc4c3CCO4)n3cnnc23)cnn1C [Example 172, 8-(1,5-dimethyl-1H-pyrazol-4-yl)-N-((5-fluoro-2,3-dihydrobenzofuran-4-yl)methyl)-[1,2,4]triazolo[4,3-c]pyrimidin-5-amine]
- IC50 (EED (1-441)-His protein): 0.0066 µM
- IC50 [1]: 0.0071 µM

SMILES: O=CN1CCN(CCc2ccc(-c3cnc(NCc4cccc5c4CCO5)n4cnnc34)cn2)CC1 [Example 107, 4-(2-(5-(5-(((2,3-dihydrobenzofuran-4-yl)methyl)amino)-[1,2,4]triazolo[4,3-c]pyrimidin-8-yl)pyridin-2-yl)ethyl)piperazine-1-carbaldehyde]
- IC50 (EED (1-441)-His protein): 0.0124 µM
- IC50 [1]: 0.025 µM

SMILES: Cc1cc(C2CC2)ncc1-c1cnc(NCc2c(F)ccc3c2CCO3)n2cnnc12 [Example 173, 8-(6-cyclopropyl-4-methylpyridin-3-yl)-N-((5-fluoro-2,3-dihydrobenzofuran-4-yl)methyl)-[1,2,4]triazolo[4,3-c]pyrimidin-5-amine]
- IC50 (EED (1-441)-His protein): 0.0075 µM
- IC50 [1]: 0.0077 µM

SMILES: Cc1ncc(-c2cnc(NCc3c(F)ccc4c3CCO4)n3cnnc23)n1C [Example 245, 8-(1,2-dimethyl-1H-imidazol-5-yl)-N-((5-fluoro-2,3-dihydrobenzofuran-4-yl)methyl)-[1,2,4]triazolo[4,3-c]pyrimidin-5-amine]
- IC50 (EED (1-441)-His protein): 0.0672 µM
- IC50 [1]: 0.223 µM

SMILES: CCOc1cc(C)c(-c2cnc(NCc3c(F)ccc4c3CCO4)n3cnnc23)cn1 [Example 196, 8-(6-ethoxy-4-methylpyridin-3-yl)-N-((5-fluoro-2,3-dihydrobenzofuran-4-yl)methyl)-[1,2,4]triazolo[4,3-c]pyrimidin-5-amine]
- IC50 (EED (1-441)-His protein): 0.0036 µM
- IC50 [1]: 0.0082 µM

SMILES: Cc1noc(C)c1-c1cnc(NCc2cccc3c2CCO3)n2cnnc12 [Example 59, N-((2,3-dihydrobenzofuran-4-yl)methyl)-8-(3,5-dimethylisoxazol-4-yl)-[1,2,4]triazolo[4,3-c]pyrimidin-5-amine]
- IC50 (EED (1-441)-His protein): 0.0318 µM
- IC50 [1]: 0.0387 µM

SMILES: Cc1nn(CCO)c(C)c1-c1cnc(NCc2cccc3c2CCO3)n2cnnc12 [Example 67, 2-(4-(5-(((2,3-dihydrobenzofuran-4-yl)methyl)amino)-[1,2,4]triazolo[4,3-c]pyrimidin-8-yl)-3,5-dimethyl-1H-pyrazol-1-yl)ethanol]
- IC50 (EED (1-441)-His protein): 0.0309 µM
- IC50 [1]: 0.0902 µM

SMILES: Fc1ccc2c(c1CNc1ncc(-c3ccncc3Cl)c3nncn13)CCO2 [Example 162, 8-(3-chloropyridin-4-yl)-N-((5-fluoro-2,3-dihydrobenzofuran-4-yl)methyl)-[1,2,4]triazolo[4,3-c]pyrimidin-5-amine]
- IC50 (EED (1-441)-His protein): 0.0057 µM
- IC50 [1]: 0.0211 µM

SMILES: O=C1CNCCN1c1ccc(-c2cnc(NCc3cccc4c3CCO4)n3cnnc23)cn1 [Example 125, 1-(5-(5-(((2,3-dihydrobenzofuran-4-yl)methyl)amino)-[1,2,4]triazolo[4,3-c]pyrimidin-8-yl)pyridin-2-yl)piperazin-2-one]
- IC50 (EED (1-441)-His protein): 0.0085 µM
- IC50 [1]: 0.0234 µM

SMILES: COCc1ncc(-c2cnc(NCc3cccc4c3CCO4)n3cnnc23)cc1C [Example 83, N-((2,3-dihydrobenzofuran-4-yl)methyl)-8-(6-(methoxymethyl)-5-methylpyridin-3-yl)-[1,2,4]triazolo[4,3-c]pyrimidin-5-amine]
- IC50 (EED (1-441)-His protein): 0.0105 µM
- IC50 [1]: 0.0228 µM

SMILES: CC(C)(O)c1ccc(-c2cnc(NCc3cccc4c3CCO4)n3cnnc23)cn1 [Example 99, 2-(5-(5-(((2,3-dihydrobenzofuran-4-yl)methyl)amino)-[1,2,4]triazolo[4,3-c]pyrimidin-8-yl)pyridin-2-yl)propan-2-ol]
- IC50 (EED (1-441)-His protein): 0.0042 µM
- IC50 [1]: 0.0067 µM

SMILES: Cc1c(-c2cnc(NCc3c(F)ccc4c3CCO4)n3cnnc23)ccnc1CF [Example 182, N-((5-fluoro-2,3-dihydrobenzofuran-4-yl)methyl)-8-(2-(fluoromethyl)-3-methylpyridin-4-yl)-[1,2,4]triazolo[4,3-c]pyrimidin-5-amine]
- IC50 (EED (1-441)-His protein): 0.0031 µM
- IC50 [1]: 0.0056 µM

SMILES: O=C(c1ccc(-c2cnc(NCc3cccc4c3CCO4)n3cnnc23)cc1)N1CCNCC1 [Example 41, (4-(5-(((2,3-dihydrobenzofuran-4-yl)methyl)amino)-[1,2,4]triazolo[4,3-c]pyrimidin-8-yl)phenyl)(piperazin-1-yl)methanone]
- IC50 (EED (1-441)-His protein): 0.0132 µM
- IC50 [1]: 0.0097 µM

SMILES: Fc1ccc2c(c1CNc1ncc(-c3ccccn3)c3nncn13)CCO2 [Example 231, N-((5-fluoro-2,3-dihydrobenzofuran-4-yl)methyl)-8-(pyridin-2-yl)-[1,2,4]triazolo[4,3-c]pyrimidin-5-amine]
- IC50 (EED (1-441)-His protein): 0.0061 µM
- IC50 [1]: 0.006 µM

SMILES: Cc1cc(-c2cnc(NCc3cccc4c3CCO4)n3cnnc23)cnc1N1CCNC(=O)C1 [Example 105, 4-(5-(5-(((2,3-dihydrobenzofuran-4-yl)methyl)amino)-[1,2,4]triazolo[4,3-c]pyrimidin-8-yl)-3-methylpyridin-2-yl)piperazin-2-one]
- IC50 (EED (1-441)-His protein): 0.0269 µM
- IC50 [1]: 0.0326 µM

SMILES: COc1cc(F)c(-c2cnc(NCc3c(F)ccc4c3CCO4)n3cnnc23)cn1 [Example 161, N-((5-fluoro-2,3-dihydrobenzofuran-4-yl)methyl)-8-(4-fluoro-6-methoxypyridin-3-yl)-[1,2,4]triazolo[4,3-c]pyrimidin-5-amine]
- IC50 (EED (1-441)-His protein): 0.0036 µM
- IC50 [1]: 0.0098 µM

SMILES: CN(C)C(=O)c1ccc(-c2cnc(NCc3c(F)ccc4c3CCO4)n3cnnc23)cc1 [Example 55, 4-(5-(((5-fluoro-2,3-dihydrobenzofuran-4-yl)methyl)amino)-[1,2,4]triazolo[4,3-c]pyrimidin-8-yl)-N,N-dimethylbenzamide]
- IC50 (EED (1-441)-His protein): 0.0211 µM
- IC50 [1]: 0.0318 µM

SMILES: CN(C)C(=O)c1ccc(-c2cnc(NCc3cccc4c3CCO4)n3cnnc23)cn1 [Example 95, 5-(5-(((2,3-dihydrobenzofuran-4-yl)methyl)amino)-[1,2,4]triazolo[4,3-c]pyrimidin-8-yl)-N,N-dimethylpicolinamide]
- IC50 (EED (1-441)-His protein): 0.0052 µM
- IC50 [1]: 0.0128 µM

SMILES: Cc1c(-c2cnc(NCc3c(F)ccc4c3CCO4)n3cnnc23)cnn1CCO [Example 189, 2-(4-(5-(((5-fluoro-2,3-dihydrobenzofuran-4-yl)methyl)amino)-[1,2,4]triazolo[4,3-c]pyrimidin-8-yl)-5-methyl-1H-pyrazol-1-yl)ethanol]
- IC50 (EED (1-441)-His protein): 0.0042 µM
- IC50 [1]: 0.0087 µM

SMILES: CC(C)n1cc(-c2cnc(NCc3c(F)ccc4c3CCO4)n3cnnc23)c(C(F)(F)F)n1 [Example 148, N-((5-fluoro-2,3-dihydrobenzofuran-4-yl)methyl)-8-(1-isopropyl-3-(trifluoromethyl)-1H-pyrazol-4-yl)-[1,2,4]triazolo[4,3-c]pyrimidin-5-amine]
- IC50 (EED (1-441)-His protein): 0.0052 µM
- IC50 [1]: 0.018 µM

SMILES: Cc1cc(S(C)(=O)=O)ncc1-c1cnc(NCc2c(F)ccc3c2CCO3)n2cnnc12 [Example 127, N-((5-fluoro-2,3-dihydrobenzofuran-4-yl)methyl)-8-(4-methyl-6-(methylsulfonyl)pyridin-3-yl)-[1,2,4]triazolo[4,3-c]pyrimidin-5-amine]
- IC50 (EED (1-441)-His protein): 0.0026 µM
- IC50 [1]: 0.0088 µM

SMILES: Cc1noc(C)c1-c1cnc(NCc2c(F)ccc3c2CCO3)n2cnnc12 [Example 71, 8-(3,5-dimethylisoxazol-4-yl)-N-((5-fluoro-2,3-dihydrobenzofuran-4-yl)methyl)-[1,2,4]triazolo[4,3-c]pyrimidin-5-amine]
- IC50 (EED (1-441)-His protein): 0.009 µM
- IC50 [1]: 0.0189 µM

SMILES: Fc1ccc2c(c1CNc1ncc(-c3ccnc(N4CCOCC4)c3)c3nncn13)CCO2 [Example 120, N-((5-fluoro-2,3-dihydrobenzofuran-4-yl)methyl)-8-(2-morpholinopyridin-4-yl)-[1,2,4]triazolo[4,3-c]pyrimidin-5-amine]
- IC50 (EED (1-441)-His protein): 0.0156 µM
- IC50 [1]: 0.0256 µM

SMILES: COc1ncc(-c2cnc(NCc3c(F)ccc4c3CCO4)n3cnnc23)cn1 [Example 174, N-((5-fluoro-2,3-dihydrobenzofuran-4-yl)methyl)-8-(2-methoxypyrimidin-5-yl)-[1,2,4]triazolo[4,3-c]pyrimidin-5-amine]
- IC50 (EED (1-441)-His protein): 0.0047 µM
- IC50 [1]: 0.0062 µM

SMILES: Cc1cc(OC(F)F)ncc1-c1cnc(NCc2c(F)ccc3c2CCO3)n2cnnc12 [Example 197, 8-(6-(difluoromethoxy)-4-methylpyridin-3-yl)-N-((5-fluoro-2,3-dihydrobenzofuran-4-yl)methyl)-[1,2,4]triazolo[4,3-c]pyrimidin-5-amine]
- IC50 (EED (1-441)-His protein): 0.0022 µM
- IC50 [1]: 0.0057 µM

SMILES: Cc1cn(-c2cnc(NCc3c(F)ccc4c3CCO4)n3cnnc23)c(C)n1 [Example 236, 8-(2,4-dimethyl-1H-imidazol-1-yl)-N-((5-fluoro-2,3-dihydrobenzofuran-4-yl)methyl)-[1,2,4]triazolo[4,3-c]pyrimidin-5-amine]
- IC50 (EED (1-441)-His protein): 0.0102 µM
- IC50 [1]: 0.0232 µM

SMILES: Fc1ccc2c(c1CNc1ncc(-c3cccnc3)c3nncn13)CCO2 [Example 44, N-((5-fluoro-2,3-dihydrobenzofuran-4-yl)methyl)-8-(pyridin-3-yl)-[1,2,4]triazolo[4,3-c]pyrimidin-5-amine]
- IC50 (EED (1-441)-His protein): 0.0128 µM
- IC50 [1]: 0.0192 µM

SMILES: OCCn1cc(-c2cnc(NCc3cccc4c3CCO4)n3cnnc23)cn1 [Example 34, 2-(4-(5-(((2,3-dihydrobenzofuran-4-yl)methyl)amino)-[1,2,4]triazolo[4,3-c]pyrimidin-8-yl)-1H-pyrazol-1-yl)ethanol]
- IC50 (EED (1-441)-His protein): 0.0375 µM
- IC50 [1]: 0.0494 µM
